# Results reported in the OPERA property sets (Mansouri et al. 2018).
smiles,measurement,value
O=P(NN=Cc1ccc(F)cc1)(N1CC1)N1CC1,logP,0.45
CN(N=Cc1ccc(F)cc1)P(=O)(N1CC1)N1CC1,logP,0.48
O=P(N1CC1)(N1CC1)N(N=Cc1ccc(F)cc1)c1ccccc1,logP,0.56
COc1ccc(C=NN(C)P(=O)(N2CC2)N2CC2)cc1,logP,0.47
CC(C)=NNP(=O)(N1CC1)N1CC1,logP,0.45
O=P(NN=Cc1ccccc1)(N1CC1)N1CC1,logP,0.48
O=P(N1CC1)(N1CC1)N(N=Cc1ccccc1)c1ccccc1,logP,0.56
CN(N=Cc1ccc([N+](=O)[O-])cc1)P(=O)(N1CC1)N1CC1,logP,0.51
CN(N=Cc1ccc(Br)cc1)P(=O)(N1CC1)N1CC1,logP,0.31
CC(C)=NN(c1ccccc1)P(=O)(N1CC1)N1CC1,logP,0.57
O=[N+]([O-])c1ccc(C=NN(c2ccccc2)P(=O)(N2CC2)N2CC2)cc1,logP,0.57
O=[N+]([O-])c1ccc(N(N=Cc2ccccc2)P(=O)(N2CC2)N2CC2)cc1,logP,0.57
O=[N+]([O-])c1ccc(C=NNP(=O)(N2CC2)N2CC2)cc1,logP,0.45
COc1ccc(C=NN(c2ccccc2)P(=O)(N2CC2)N2CC2)cc1,logP,0.57
COc1ccc(C=NNP(=O)(N2CC2)N2CC2)cc1,logP,0.42
O=P(NN=Cc1ccc(Cl)cc1)(N1CC1)N1CC1,logP,0.13
CN(N=Cc1ccccc1)P(=O)(N1CC1)N1CC1,logP,0.51
CC(C)=NN(C)P(=O)(N1CC1)N1CC1,logP,0.51
O=P(N1CC1)(N1CC1)N(N=Cc1ccc(Cl)cc1)c1ccccc1,logP,0.35
